One data set has as its system MV4-11 cells. The experiment in a line: MV4-11 Cell Cytotoxicity Assay (CellTiter-Blue, 72 h). The settings on record: Homo sapiens, MV4-11; MV-4-11 cells. It is filed as cell-based, human. A digest of the protocol: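 Cells seeded 24 h before treatment, then exposed 72 h at 37° C, 5% CO2 to inhibitors in triplicate, top concentration 50 μM with 1:2 serial dilutions (0.5% DMSO vehicle). Viability read by CellTiter-Blue fluorescence at 560/590 nm after 1 h.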

The subject of another data set is glutathione (GSH). The data set can be described thus: Reactivity Profiling with Glutathione (GSH), half-life by HPLC. The settings on record: 5 mM glutathione (GSH) in IMDM with 10% FBS.

For `COc1cc(C(=O)O)ccc1N(Cc1cc(C2CC2)cc(C(C)(C)C)c1)C(=O)CN(Cc1cccc(F)c1F)S(=O)(=O)c1c(F)c(F)c(F)c(F)c1F` [Compound 1080, 4-(N-(3-(tert-butyl)-5-cyclopropylbenzyl)-2-(N-(2,3-difluorobenzyl)-(2,3,4,5,6-pentafluorophenyl)sulfonamido)acetamido)-3-methoxybenzoic acid], in the data set with MV4-11 cells, the IC50 (commonly the concentration that gives 50% inhibition) was in the range of 0.01 to 316 nM. In the data set with glutathione (GSH), the half-life – broadly, the time needed for the level to fall by half in the phase considered – at 25 μM is 2.37 to 4.12 h.
In the same order, the values of `CN(C)c1cc(N(Cc2cc(C3CC3)cc(C(C)(C)C)c2)C(=O)CN(Cc2ccccc2F)S(=O)(=O)c2c(F)c(F)c(F)c(F)c2F)ccc1C(=O)O` [Compound 1071, 4-(N-(3-(tert-butyl)-5-cyclopropylbenzyl)-2-(N-(2-fluorobenzyl)-(2,3,4,5,6-pentafluoro-phenyl)sulfonamido)acetamido)-2-(dimethylamino) benzoic acid] are 316 to 1000 nM and 2.37 to 4.12 h.
On to `COc1ccccc1CN(CC(=O)N(Cc1cc(C2CC2)cc(C(C)(C)C)c1)c1ccc(C(=O)O)c(O)c1)S(=O)(=O)c1c(F)c(F)c(F)c(F)c1F` [Compound 1037, 4-(N-(3-(tert-butyl)-5-cyclopropylbenzyl)-2-(N-(2-methoxybenzyl)-(2,3,4,5,6-pentafluoro-phenyl)sulfonamido)acetamido)-2-hydroxybenzoic acid], for which, in the data set on MV4-11 cells, the IC50 fell in the range of 1000 to 3160 nM. In addition, in the data set with glutathione (GSH), the half-life at 25 μM fell in the range of 2.37 to 4.12 h.
`COc1cc(C(=O)O)ccc1N(Cc1cc(C2CC2)cc(C(C)(C)C)c1)C(=O)CN(Cc1ccc(F)cn1)S(=O)(=O)c1c(F)c(F)c(F)c(F)c1F` [Compound 1085, 4-(N-(3-(tert-butyl)-5-cyclopropylbenzyl)-2-(N-((5-fluoropyridin-2-yl)methyl)-(2,3,4,5,6-pentafluoro-phenyl)sulfonamido)acetamido)-3-methoxybenzoic acid] gave an IC50 in the data set with MV4-11 cells of 316 to 1000 nM. The molecule also came in with a half-life at 25 μM in the data set with glutathione (GSH) of 0.00167 to 2.37 h.
In turn, `CC(c1cc(CN(C(=O)CN(Cc2ccccc2F)S(=O)(=O)c2c(F)c(F)c(F)c(F)c2F)c2ccc(C(=O)O)c(O)c2)cc(C2CC2)c1)C(F)(F)F` (stereo not shown) [Compound 1086, 4-(N-(3-cyclopropyl-5-(1,1,1-trifluoropropan-2-yl)benzyl)-2-(N-(2-fluorobenzyl)-(2,3,4,5,6-pentafluoro-phenyl)sulfonamido)acetamido)-2-hydroxybenzoic acid] yielded a 50% inhibitory concentration (IC50) with MV4-11 cells of 1000 to 3160 nM. In the data set on glutathione (GSH), the half-life at 25 μM is 2.37 to 4.12 h.
Taken in the same sequence, the figures for `COc1cc(C(=O)O)ccc1N(Cc1cc(C2CC2)cc(C(C)(C)C)c1)C(=O)CN(Cc1ncc(F)cc1Cl)S(=O)(=O)c1c(F)c(F)c(F)c(F)c1F` [Compound 1179, 4-(N-(3-(tert-butyl)-5-cyclopropylbenzyl)-2-(N-((3-chloro-5-fluoropyridin-2-yl)methyl)-(2,3,4,5,6-pentafluorophenyl)sulfon-amido)acetamido)-3-methoxybenzoic acid] were 0.01 to 316 nM and 2.37 to 4.12 h.
Taken in the same sequence, the figures for `CN(C)c1cc(C(=O)O)c(F)cc1N(Cc1cc(C2CC2)cc(C(C)(C)C)c1)C(=O)CN(Cc1ccccc1F)S(=O)(=O)c1c(F)c(F)c(F)c(F)c1F` [Compound 1060, 4-(N-(3-(tert-butyl)-5-cyclopropylbenzyl)-2-(N-(2-fluorobenzyl)-(2,3,4,5,6-pentafluoro-phenyl)sulfonamido)acetamido)-5-(dimethylamino)-2-fluorobenzoic acid] were 0.01 to 316 nM and 4.12 to 9.23 h.
In the data set on MV4-11 cells, `COc1cc(C(=O)O)ccc1N(Cc1cc(C2CC2)cc(C(C)(C)C)c1)C(=O)CN(Cc1ccc(F)nc1F)S(=O)(=O)c1c(F)c(F)c(F)c(F)c1F` [Compound 1095, 4-(N-(3-(tert-butyl)-5-cyclopropylbenzyl)-2-(N-((2,6-difluoropyridin-3-yl)methyl)-(2,3,4,5,6-pentafluorophenyl)sulfon-amido)acetamido)-3-methoxybenzoic acid] had an IC50 of 0.01 to 316 nM. In the data set on glutathione (GSH), this molecule yielded a half-life at 25 μM of 0.00167 to 2.37 h.

The values are drawn from patent US20230159445A1, “STAT INHIBITORY COMPOUNDS AND COMPOSITIONS” (JANPIX LIMITED, priority 2020, published 2023).
